This note sets out measurements from patent US8288387B2, “Napthalimide-benzimidazole hybrids as potential antitumor agents and process for the preparation thereof” (Council of Scientific & Industrial Research, priority 2008, dated 2012).

In experiment [1] the test system is OVCAR8. In words: In vitro one dose primary anticancer assay, OVCAR8. It counts as cell-based, human. The following applies: Ovarian (OVCAR8), 10^−5 Molar concentration. As to the method: (§1) Anticancer activity: In vitro biological activity studies were carried out at the National Cancer Institute (USA).
(§2) The compounds 5a-b evaluated for in vitro anticancer activity against sixty human tumour cells derived from nine cancer types (leukemia, non-small-cell lung, colon, CNS, melanoma, ovarian, prostate, and breast cancer) as shown in Table 1. For each compound, dose response curves for each cell line were measured at a minimum of five concentrations at 10 fold dilutions. A protocol of 48 h continuous drug exposure was used and a sulforhodamine B (SRB) protein assay was used to estimate cell viability or growth. The concentration causing 50% cell growth inhibition (GI50), total cell growth inhibition (TGI 0% growth) and 50% cell death (LC50, −50% growth) compared with the control was calculated. […] The MG MID of log TGI and log LC50 have shown similar pattern to the log GI50 MG MID. The other compounds 9a-c evaluated for in vitro one dose anticancer activity against nine human tumor cell panels containing sixty cell lines in percent growth inhibition values are listed in Table 3.

Experiment [2] deals with T-47D. In words: In vitro one dose primary anticancer assay, T-47D. It counts as cell-based, human. The following applies: Breast (T-47D), 10^−5 Molar concentration. The protocol:
as §1, §2

The test system of experiment [3] is SF-295. In words: In vitro one dose primary anticancer assay, SF-295. It counts as cell-based, human. The settings on record: CNS (SF-295), 10^−5 Molar concentration. As to the method:
as §1, §2

Experiment [4] has as its system HL-60. In words: In vitro one dose primary anticancer assay, HL-60. It counts as cell-based, human. The following applies: Leukemia (HL-60), 10^−5 Molar concentration. The protocol:
as §1, §2

The test system of experiment [5] is UO-31. Nature of the experiment: In vitro one dose primary anticancer assay, UO-31. It counts as cell-based, human. The following applies: Renal (UO-31), 10^−5 Molar concentration. The protocol:
as §1, §2

In experiment [6] the test system is sixty human tumour cells. In words: In vitro cytotoxicity, mean graph midpoints over all cell lines. The settings on record: mean graph midpoint. It counts as cell-based. As to the method:
as §1, §2

The test system of experiment [7] is U251. Nature of the experiment: NCI in vitro anticancer SRB assay, U251. It counts as cell-based, human. The settings on record: U251, CNS Cancer. As to the method: as §1, §2
A general note: The SRB assay estimates cell density from bound dye.

In experiment [8] the test system is OVCAR-4. In words: NCI in vitro anticancer SRB assay, OVCAR-4. It counts as cell-based, human. The settings on record: OVCAR-4, Ovarian Cancer. The protocol:
as §1, §2

The subject of experiment [9] is EKVX. In words: NCI in vitro anticancer SRB assay, EKVX. It counts as cell-based, human. The following applies: Non-Small Cell Lung Cancer. The protocol:
as §1, §2

For experiment [10], the system named is MALME-3M. Nature of the experiment: NCI in vitro anticancer SRB assay, MALME-3M. It counts as cell-based, human. The settings on record: Melanoma. As to the method:
as §1, §2

Experiment [11] concerns SK-MEL-28. In words: NCI in vitro anticancer SRB assay, SK-MEL-28. It counts as cell-based, human. The settings on record: SK-MEL-28, Melanoma. The protocol:
as §1, §2

For experiment [12], the system named is KM12. Nature of the experiment: NCI in vitro anticancer SRB assay, KM12. It counts as cell-based, human. The following applies: KM12, Colon Cancer. The protocol:
as §1, §2

Experiment [13] concerns MDA-MB-231/ATCC. In words: NCI in vitro anticancer SRB assay, MDA-MB-231/ATCC. It counts as cell-based, human. The settings on record: Breast Cancer. The protocol: as §1, §2
The test system of experiment [14] is K-562. In words: NCI in vitro anticancer SRB assay, K-562. It counts as cell-based, human. The settings on record: K-562, Leukemia. The protocol: as §1, §2
In experiment [15] the test system is MCF7. In words: NCI in vitro anticancer SRB assay, MCF7. It counts as cell-based, human. The settings on record: MCF7, Breast Cancer. As to the method: as §1, §2
For experiment [16], the system named is T-47D. In words: NCI in vitro anticancer SRB assay, T-47D. It counts as cell-based, human. The following applies: Breast Cancer. As to the method:
as §1, §2

Experiment [17] has as its system NCI-H322M. Nature of the experiment: NCI in vitro anticancer SRB assay, NCI-H322M. It counts as cell-based, human. The following applies: Non-Small Cell Lung Cancer. As to the method: as §1, §2
The subject of experiment [18] is 786-0. Nature of the experiment: NCI in vitro anticancer SRB assay, 786-0. It counts as cell-based, human. The following applies: 786-0, Renal Cancer. As to the method:
as §1, §2

In experiment [19] the test system is DU 145. In words: NCI in vitro anticancer SRB assay, DU 145. It counts as cell-based, human. The following applies: DU 145, Prostate Cancer. As to the method: as §1, §2
Experiment [20] relates to RXF 393. In words: NCI in vitro anticancer SRB assay, RXF 393. It counts as cell-based, human. The settings on record: RXF 393, Renal Cancer. The protocol: as §1, §2
The test system of experiment [21] is HS 578T. In words: NCI in vitro anticancer SRB assay, HS 578T. It counts as cell-based, human. The following applies: Breast Cancer. The protocol: as §1, §2
Experiment [22] deals with HCT-116. Nature of the experiment: NCI in vitro anticancer SRB assay, HCT-116. It counts as cell-based, human. The settings on record: HCT-116, Colon Cancer; 48 h drug exposure, SRB. As to the method:
as §1, §2

Experiment [23] relates to BT-549. Nature of the experiment: NCI in vitro anticancer SRB assay, BT-549. The following applies: BT-549, Breast Cancer. It counts as cell-based, human. The protocol:
as §1, §2

For experiment [24], the system named is SF-539. Nature of the experiment: NCI in vitro anticancer SRB assay, SF-539. The settings on record: SF-539, CNS Cancer. It counts as cell-based, human. As to the method: as §1, §2
For experiment [25], the system named is SW-620. Nature of the experiment: NCI in vitro anticancer SRB assay, SW-620. It counts as cell-based, human. The settings on record: SW-620, Colon Cancer. As to the method:
as §1, §2

Experiment [26] relates to SK-MEL-5. Nature of the experiment: NCI in vitro anticancer SRB assay, SK-MEL-5. It counts as cell-based, human. The settings on record: SK-MEL-5, Melanoma. As to the method:
as §1, §2

For the substance “2-{4-[4-(4-[4-(6-[4-methylpiperazino]-2-benzimidazolyl)phenoxy]butyl)piperazino]butyl}napthalimide [Compound 9a]”, the “% GI (percent growth inhibition)” value in experiment [1] amounted to 77%; in [2], 64%; in experiment [3], 71%; in experiment [4] it was 84%; in experiment [5] it was 85%.

For the substance “2-{4-[4-(4-[4-(6-morpholino-2-benzimidazolyl)phenoxy]butyl)piperazino]butyl}napthalimide [Compound 9b]”, the “% GI (percent growth inhibition)” value in experiment [1] was 78%; in [2] it was 50%; in [3], 50%; in experiment [4], 50%; in experiment [5] it was 68%.

By GI50 is commonly meant the concentration at which growth is held to half of that of the control. For the substance “2-{4-[4-(6-morpholino-2-benzimidazolyl)phenoxy]butyl}naphthalimide [Compound 5b]”, the entries for the “Log LC50 MG MID” value in experiment [6] (log10 of drug concentration causing 50% cell death (−50%)) and in experiment [6] (repeated test values) were −4.46 and −4.27, respectively. Besides, the “Log TGI MG MID” value is on record as −4.94 in experiment [6] (log10 of drug concentration causing total cell growth inhibition (0% growth)) and −4.71 in [6] (repeated test values). The “Log GI50 MG MID” value in experiment [6] (log10 of drug molar concentration causing 50% cell growth inhibition) is −5.54; in experiment [6] (repeated test values), −5.35. Also, the GI50 in [7] (48 h drug exposure, SRB) came out at 1410 nM; in [7] (repeat test values), 1660 nM; in experiment [8] (48 h drug exposure, SRB), 1470 nM; in [8] (repeat test values) it was 2210 nM; in [9] (48 h drug exposure, SRB), 12200 nM; in [9] (repeat test values), 25400 nM. Moreover, the 50% growth inhibitory concentration (GI50) stood at 90 nM in [10] (48 h drug exposure, SRB); 3340 nM in experiment [10] (repeat test values); 1300 nM in experiment [11] (48 h drug exposure, SRB); 1560 nM in experiment [11] (repeat test values); 1140 nM in experiment [12] (48 h drug exposure, SRB); 7250 nM in experiment [12] (repeat test values). Also, the concentration for 50% growth inhibition (GI50) in experiment [13] (48 h drug exposure, SRB) was determined as 2510 nM; in experiment [13] (repeat test values), 4250 nM; in experiment [14] (48 h drug exposure, SRB), 2970 nM; in [14] (repeat test values), 3250 nM; in experiment [15] (48 h drug exposure, SRB) it was 3330 nM; in experiment [15] (repeat test values), 2560 nM. The 50% growth inhibitory concentration (GI50) is 2200 nM in [16] (48 h drug exposure, SRB); 4320 nM in [16] (repeat test values); 110 nM in experiment [17] (48 h drug exposure, SRB); 40700 nM in experiment [17] (repeat test values); 1210 nM in experiment [18] (48 h drug exposure, SRB); 1370 nM in experiment [18] (repeat test values). Also, the concentration for 50% growth inhibition (GI50) was 3270 nM in [19] (48 h drug exposure, SRB); 4560 nM in experiment [19] (repeat test values); 850 nM in [20] (48 h drug exposure, SRB); 340 nM in experiment [20] (repeat test values); 990 nM in [21] (48 h drug exposure, SRB); 4680 nM in experiment [21] (repeat test values). The 50% growth inhibitory concentration (GI50) amounted to 1760 nM in experiment [22]; 1450 nM in experiment [23] (48 h drug exposure, SRB); 1540 nM in [23] (repeat test values); 1700 nM in [24] (48 h drug exposure, SRB); 1600 nM in [24] (repeat test values); 3190 nM in experiment [25] (48 h drug exposure, SRB). For the same substance, the GI50 amounted to 4490 nM in [25] (repeat test values); 1440 nM in experiment [26] (48 h drug exposure, SRB); 1770 nM in experiment [26] (repeat test values).

For “2-{5-[4-(5-[4-(6-morpholino-2-benzimidazolyl)phenoxy]pentyl)piperazino]pentyl}napthalimide [Compound 9c]”, the “% GI (percent growth inhibition)” value came to 89% in experiment [1]; 99% in [2]; 84% in [3]; 97% in experiment [4]; 96% in experiment [5].
